# Test results published in publication PMC12785325, “Edible Yellow Mealworm-Derived Antidiabetic Peptides: Dual Modulation of α-Glucosidase and Dipeptidyl-Peptidase IV Inhibition Revealed by Integrated Proteomics, Bioassays, and Molecular Docking Analysis” (Foods, 2025).
# Where a SMILES comes first, the peptide text is derived from it.
# Target: T1, DPP-IV (Homo sapiens, UniProt P27487)
# T1 construct: purchased Abcam (Cambridge, UK)
# Test: DPP-IV inhibitor screening assay (commercial kit, Abcam)
# Format: biochemical
# Conditions: IC50 from DPP-IV inhibition rates, '-' = no IC50 given (only three peptides showed inhibitory effects against DPP-IV)
# Method: Subsequently, the screening assay was conducted using a commercial kit (Abcam, Cambridge, UK) following the protocols provided by the manufacturer. The half-maximal inhibitory concentration (IC50) was determined through analysis of DPP-IV inhibition rates, applying the formula outlined in Equation (2):(2) DPP-IV inhibition rate (%) = [(ABlank − ASample)/ABlank] × 100 where A represents the absorbance value.
# T1 sequence (P27487 whole entry): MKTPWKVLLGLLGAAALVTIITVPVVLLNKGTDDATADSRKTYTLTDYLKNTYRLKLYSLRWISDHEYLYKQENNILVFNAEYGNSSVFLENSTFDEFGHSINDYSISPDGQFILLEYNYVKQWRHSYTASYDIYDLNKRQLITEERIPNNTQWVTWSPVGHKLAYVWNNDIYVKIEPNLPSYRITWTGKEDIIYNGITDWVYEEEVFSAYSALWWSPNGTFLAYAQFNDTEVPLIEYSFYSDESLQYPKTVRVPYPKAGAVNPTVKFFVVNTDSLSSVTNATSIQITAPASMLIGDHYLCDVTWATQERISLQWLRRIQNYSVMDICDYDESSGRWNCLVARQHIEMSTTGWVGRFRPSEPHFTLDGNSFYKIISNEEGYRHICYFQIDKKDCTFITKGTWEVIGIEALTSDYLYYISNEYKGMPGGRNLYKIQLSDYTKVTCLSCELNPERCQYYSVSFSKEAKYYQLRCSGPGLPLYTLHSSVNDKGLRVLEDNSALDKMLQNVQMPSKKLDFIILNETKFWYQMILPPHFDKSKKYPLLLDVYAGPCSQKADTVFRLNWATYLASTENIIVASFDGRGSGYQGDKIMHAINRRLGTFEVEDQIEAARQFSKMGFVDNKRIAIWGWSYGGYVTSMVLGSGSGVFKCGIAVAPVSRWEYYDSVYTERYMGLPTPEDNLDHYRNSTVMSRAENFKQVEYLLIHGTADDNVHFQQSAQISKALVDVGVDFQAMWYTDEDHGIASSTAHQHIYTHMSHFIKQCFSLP
row,SMILES,IC50
1,NCCCC[C@H](NC(=O)[C@H](Cc1ccccc1)NC(=O)[C@@H]1CCCN1C(=O)[C@@H]1CCCN1C(=O)CNC(=O)[C@H](Cc1ccc(O)cc1)NC(=O)[C@@H](N)CC(=O)O)C(=O)O [DK-7] (H-DYGPPFK-OH),> 12.2 mM
2,CC(C)C[C@H](NC(=O)[C@H](CC(=O)O)NC(=O)[C@H](Cc1ccccc1)NC(=O)[C@@H]1CCCN1C(=O)[C@H](CC(N)=O)NC(=O)[C@@H](N)Cc1ccccc1)C(=O)N[C@H](C(=O)N[C@@H](CCCCN)C(=O)O)[C@@H](C)O [FK-8] (H-FNPFDLTK-OH),> 10.2 mM
3,CC(C)C[C@H](NC(=O)[C@@H](N)CO)C(=O)N[C@@H](Cc1ccccc1)C(=O)N[C@@H](CC(C)C)C(=O)N1CCC[C@H]1C(=O)N[C@@H](CCCCN)C(=O)O [SK-6] (H-SLFLPK-OH),> 14.2 mM

# Test system: HepG2 cells
# Test: HepG2 cell viability (CCK-8)
# Format: cell-based, human
# Conditions: at certain concentrations within 100-400 μg/mL, 24 h, p < 0.05
# Method: HepG2 human hepatocellular carcinoma cells utilized in this study were generously provided by Prof. Fuliang Hu from Zhejiang University’s College of Animal Science (China). Cellular maintenance involved cultivation in HyClone’s high-glucose DMEM medium supplemented with 10% heat-inactivated fetal bovine serum (Gibco, Waltham, MA, USA) and antibiotic agents (100 U/mL penicillin plus 100 μg/mL streptomycin). Cellular propagation was conducted under standard culture conditions (37 °C, 5% CO2 humidified atmosphere), following established protocols.
# To validate whether the bioactive peptides exert toxic effects on cells, the impact of peptide concentrations on cell viability should also be assessed. […] After the treatment period, 10 μL of CCK-8 solution was added, and these 96-well plates were gently shaken and incubated again at 37 °C under 5% CO2 for another 1 h. In the end, the calculation methodology for evaluating the cell viability of bioactive peptides is described in Equation (2) in Section 2.6 to assess the effects of bioactive peptides on cell viability. All blank groups were established using DMEM high-glucose medium devoid of insulin.
row,SMILES,HepG2 cell viability versus blank group
1,CC(C)C[C@H](NC(=O)[C@H](C)NC(=O)[C@H](CC(=O)O)NC(=O)[C@H](Cc1ccccc1)NC(=O)[C@@H]1CCCN1C(=O)[C@@H](N)CC(=O)O)C(=O)N1CCC[C@H]1C(=O)N[C@@H](CCCCN)C(=O)O [DK-8] (H-DPFDALPK-OH),significantly higher than the blank group
2,CSCC[C@H](NC(=O)CN)C(=O)N[C@@H](CC(=O)O)C(=O)N[C@@H](Cc1ccccc1)C(=O)N[C@@H](CCC(N)=O)C(=O)N1CCC[C@H]1C(=O)N[C@@H](CCCNC(=N)N)C(=O)O [GR-7] (H-GMDFQPR-OH),significantly higher than the blank group
3,CC(C)C[C@H](NC(=O)[C@@H](N)CO)C(=O)N[C@@H](Cc1ccccc1)C(=O)N[C@@H](CC(C)C)C(=O)N1CCC[C@H]1C(=O)N[C@@H](CCCCN)C(=O)O [SK-6] (H-SLFLPK-OH),significantly higher than the blank group
